pEC50, pKd: −log10 of the molar value.
Key:
[1] = Displacement of [3H]Ro15-1788 from rat GABAA alpha-1-beta-2-gamma-2 receptor expressed in HEK293 cells after 1 hr assessed as residual binding by liquid scintillation counting
[2] = molecular target: Gamma-aminobutyric acid receptor subunit alpha-1 (Rattus norvegicus) (UniProt P62813); test: Activity at rat wild type GABAA alpha-1-beta-2-gamma-2 receptor expressed in xenopus oocytes assessed as GABA-elicited response by two electrode voltage clamp method relative to control
Sequence of Gamma-aminobutyric acid receptor subunit alpha-1 (Rattus norvegicus) (P62813 whole entry, looked up): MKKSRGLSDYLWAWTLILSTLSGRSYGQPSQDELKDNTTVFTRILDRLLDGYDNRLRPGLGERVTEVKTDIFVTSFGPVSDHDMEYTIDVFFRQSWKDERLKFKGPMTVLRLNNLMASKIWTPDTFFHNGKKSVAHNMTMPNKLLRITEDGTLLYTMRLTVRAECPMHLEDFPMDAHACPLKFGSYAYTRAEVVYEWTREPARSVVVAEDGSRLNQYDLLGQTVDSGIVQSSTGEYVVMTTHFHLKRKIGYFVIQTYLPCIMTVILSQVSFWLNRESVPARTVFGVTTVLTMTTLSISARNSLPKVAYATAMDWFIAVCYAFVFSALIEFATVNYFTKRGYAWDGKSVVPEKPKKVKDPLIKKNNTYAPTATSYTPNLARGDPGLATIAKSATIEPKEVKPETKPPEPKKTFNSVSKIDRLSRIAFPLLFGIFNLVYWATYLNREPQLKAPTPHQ

Structure (SMILES)	pKd [1]	pEC50 [2]
CCOC(=O)c1ncn2c1CN(C)C(=O)c1cc(N=C=S)ccc1-2 [8-Isothiocyanato-5-methyl-6-oxo-5,6-dihydro-4H-2,5,10b-triaza-benzo[e]azulene-3-carboxylic acid ethyl ester]	6.06	6.60
CCOC(=O)c1ncn2c1CN(C)C(=O)c1cc(N=[N+]=[N-])ccc1-2 [RO-154513]	–	8.96

From BindingDB's records for doi:10.1074/jbc.M702153200 (University of Bern, 2007)
